Experimental data taken from US11279687B2, “Compounds and compositions for the inhibition of NAMPT” (Valo Health, Inc., priority 2010, dated 2022).
Entries after “also recorded” stand apart in the source; their conditions may differ.

What was measured:
A2780 cells [1] = assay: In-vitro cell proliferation assay (SRB), A2780 cells; assay type: cell-based; conditions: Homo sapiens, A2780, 72 h, A2780 cells, 72 hours, SRB; read-out: A2780 IC50;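 further: viable cell number read as SRB absorbance, background from media-only wells subtracted, IC50 interpolated from percent inhibition at two bracketing compound concentrations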
A2780 cells [2] = assay: A2780 xenograft study in mice; assay type: in vivo, C.B-17-Igh-1b-Prkdc^scid mice; conditions: female SCID mice, s.c. A2780 tumors, p.o. BID for 5 or 10 days, dose selected from MTD study
Protocol: C.B-17-Igh-1b-Prkdc^scid mice (female) were injected s.c. with 5×10^6 A2780 cells (NCI) in the left flank. 10-12 days later when tumors reached 100-200 mm3 in size, mice were randomized into treatment groups of 8 mice per group including vehicle control and reference standard groups. The compounds were formulated in 60:30:10 PEG-400:D5W: Ethanol and administered p.o., at the dose volume of 10 ml/kg BID for a duration of 5 or 10 days. The dose used for efficacy was selected from the MTD (Maximum Tolerated Dose) study. Mice were weighed and tumors measured using vernier calipers every alternate day. Tumor volume was calculated according to the formula (length×width^2)/2. All animal work was approved by the Institutional Animal Care and Use Committee of Biological Resource Centre, Singapore.

NAMPT = NAMPT (Homo sapiens (Human), UniProt P43490); assay: NAMPT biochemical inhibition assay (NMN quantified by mass spectrometry); conditions: NAMPT biochemical inhibition; read-out: Biochem IC50
NAMPT, sequence (P43490 whole entry): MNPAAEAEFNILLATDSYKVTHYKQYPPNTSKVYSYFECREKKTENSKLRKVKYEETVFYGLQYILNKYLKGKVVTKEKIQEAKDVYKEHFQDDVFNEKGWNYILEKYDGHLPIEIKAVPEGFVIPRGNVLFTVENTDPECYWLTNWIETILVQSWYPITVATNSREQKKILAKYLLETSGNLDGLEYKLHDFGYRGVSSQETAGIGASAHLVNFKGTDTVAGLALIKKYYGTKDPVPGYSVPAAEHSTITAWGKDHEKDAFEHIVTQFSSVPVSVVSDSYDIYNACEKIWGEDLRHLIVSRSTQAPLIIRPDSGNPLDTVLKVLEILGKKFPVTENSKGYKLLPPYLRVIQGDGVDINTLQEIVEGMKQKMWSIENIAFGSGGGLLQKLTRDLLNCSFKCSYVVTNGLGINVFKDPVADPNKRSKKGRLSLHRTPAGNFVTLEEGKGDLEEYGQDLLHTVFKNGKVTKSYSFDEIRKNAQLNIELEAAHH

Compound	IC50 (A2780 cells [1]) [nM]	effect on tumor growth in A2780 xenograft (A2780 cells [2])	IC50 (NAMPT) [nM]
O=C(NCc1cccnc1)Nc1ccc(S(=O)(=O)N2CC3CCC(C2)O3)cc1 [1-(4-{8-oxa-3-azabicyclo[3.2.1]octane-3-sulfonyl}phenyl)-3-(pyridin-3-ylmethyl)urea]	29	tumor regression	
O=C(NCc1cccnc1)Nc1ccc(S(=O)(=O)N[C@H]2C[C@@H]3CC[C@H]2C3)cc1 [1-(4-{[(1S,2S,4R)-bicyclo[2.2.1]heptan-2-yl]sulfamoyl}phenyl)-3-(pyridin-3-ylmethyl)urea]	46	delayed tumor growth	7
O=C(NCc1cccnc1)Nc1ccc(S(=O)(=O)c2ccccc2OC(F)(F)F)cc1 [1-(pyridin-3-ylmethyl)-3-(4-{[2-(trifluoromethoxy)benzene]sulfonyl}phenyl)urea]	3	tumor regression	1
O=C(NCc1ccc2nccn2c1)Nc1ccc(S(=O)(=O)c2ccccc2)cc1 [1-[4-(benzenesulfonyl)phenyl]-3-{imidazo[1,2-a]pyridin-6-ylmethyl}urea]	33	delayed tumor growth	
O=C(NCc1cccnc1)Nc1ccc(S(=O)(=O)N2CCC(N3CCOCC3)CC2)cc1 [1-{4-[4-(morpholin-4-yl)piperidine-1-sulfonyl]phenyl}-3-(pyridin-3-ylmethyl)urea]	13	delayed tumor growth	9
C[C@@H]1CN(S(=O)(=O)c2ccc(NC(=O)NCc3ccc4nccn4c3)cc2)C[C@H](C)O1 [1-{4-[(2R,6S)-2,6-dimethylmorpholine-4-sulfonyl]phenyl}-3-{imidazo[1,2-a]pyridin-6-ylmethyl}urea]	25	delayed tumor growth	8
O=C(NCc1ccc2nccn2c1)Nc1ccc(S(=O)(=O)c2ccc(F)cc2)cc1 [1-{4-[(4-fluorobenzene)sulfonyl]phenyl}-3-{imidazo[1,2-a]pyridin-6-ylmethyl}urea]	29	tumor stasis; also recorded: delayed tumor growth	3
O=C(NCc1cccnc1)Nc1ccc(S(=O)(=O)Nc2cccc3ccccc23)cc1 [1-{4-[(naphthalen-1-yl)sulfamoyl]phenyl}-3-(pyridin-3-ylmethyl)urea]	19	delayed tumor growth	1
COc1ccc(C(F)(F)F)cc1NS(=O)(=O)c1ccc(NC(=O)NCc2cccnc2)cc1 [3-(4-{[2-methoxy-5-(trifluoromethyl)phenyl]sulfamoyl}phenyl)-1-(pyridin-3-ylmethyl)urea]	2	delayed tumor growth	0.1
O=C(NCc1cccnc1)Nc1ccc(S(=O)(=O)c2ccccc2)cc1 [3-[4-(benzenesulfonyl)phenyl]-1-(pyridin-3-ylmethyl)urea]		tumor stasis	
Cc1ccc(Cl)c(NS(=O)(=O)c2ccc(NC(=O)NCc3cccnc3)cc2)c1 [3-{4-[(2-chloro-5-methylphenyl)sulfamoyl]phenyl}-1-(pyridin-3-ylmethyl)urea]	9	delayed tumor growth	0.3
C[C@@H]1CN(S(=O)(=O)c2ccc(NC(=O)NCc3cccnc3)cc2)C[C@H](C)O1 [3-{4-[(2R,6S)-2,6-dimethylmorpholine-4-sulfonyl]phenyl}-1-(pyridin-3-ylmethyl)urea]	9	delayed tumor growth	
COc1cccc(NS(=O)(=O)c2ccc(NC(=O)NCc3cccnc3)cc2)c1C [3-{4-[(3-methoxy-2-methylphenyl)sulfamoyl]phenyl}-1-(pyridin-3-ylmethyl)urea]	57	delayed tumor growth	2
COc1cc(Cl)c(C)cc1NS(=O)(=O)c1ccc(NC(=O)NCc2cccnc2)cc1 [3-{4-[(4-chloro-2-methoxy-5-methylphenyl)sulfamoyl]phenyl}-1-(pyridin-3-ylmethyl)urea]	6	tumor stasis	1
O=C(NCc1cccnc1)Nc1ccc(S(=O)(=O)c2ccc(F)cc2)cc1 [3-{4-[(4-fluorobenzene)sulfonyl]phenyl}-1-(pyridin-3-ylmethyl)urea]	171	delayed tumor growth	4
COc1ccc(Cl)cc1NS(=O)(=O)c1ccc(NC(=O)NCc2cccnc2)cc1 [3-{4-[(5-chloro-2-methoxyphenyl)sulfamoyl]phenyl}-1-(pyridin-3-ylmethyl)urea]	3	delayed tumor growth	0.9
O=C(NCc1ccc2nccn2c1)Nc1ccc(S(=O)(=O)N2CCC(N3CCOCC3)CC2)cc1 [3-{imidazo[1,2-a]pyridin-6-ylmethyl}-1-{4-[4-(morpholin-4-yl)piperidine-1-sulfonyl]phenyl}urea]	5	delayed tumor growth	4
CN(C(=O)CN1CCN(S(=O)(=O)c2ccc(NC(=O)NCc3cccnc3)cc2)CC1)c1ccccc1 [N-methyl-N-phenyl-2-{4-[(4-{[(pyridin-3-ylmethyl)carbamoyl]amino}benzene)sulfonyl]piperazin-1-yl}acetamide]	30		8
CC(=O)Nc1cccc(S(=O)(=O)c2ccc(NC(=O)NCc3cccnc3)cc2)c1 [N-{3-[(4-{[(pyridin-3-ylmethyl)carbamoyl]amino}benzene)sulfonyl]phenyl}acetamide]	39.5		1.5
COc1cccc(S(=O)(=O)c2ccc(C(=O)NCc3ccc4nccn4c3)cc2)c1 [N-{imidazo[1,2-a]pyridin-6-ylmethyl}-4-[(3-methoxybenzene)sulfonyl]benzamide]	3.54		19.2
O=C(NCc1ccc2nccn2c1)c1ccc(S(=O)(=O)N2CC3CCC(C2)O3)cc1 [N-{imidazo[1,2-a]pyridin-6-ylmethyl}-4-{8-oxa-3-azabicyclo[3.2.1]octane-3-sulfonyl}benzamide]	27.1		109
O=C(NCc1ccc2nccn2c1)c1ccc(S(=O)(=O)c2cccc(OC(F)(F)F)c2)cc1 [N-{imidazo[1,2-a]pyridin-6-ylmethyl}-4-{[3-(trifluoromethoxy)benzene]sulfonyl}benzamide]	1.8		139
O=C(NCc1ccc2nccn2c1)c1ccc(S(=O)(=O)Nc2cccc(OC(F)(F)F)c2)cc1 [N-{imidazo[1,2-a]pyridin-6-ylmethyl}-4-{[3-(trifluoromethoxy)phenyl]sulfamoyl}benzamide]	8.58		467
O=C(NCc1ccc2nccn2c1)c1ccc(S(=O)(=O)c2cccc(C(F)(F)F)c2)cc1 [N-{imidazo[1,2-a]pyridin-6-ylmethyl}-4-{[3-(trifluoromethyl)benzene]sulfonyl}benzamide]	4.33		7.03
CC(C)(C)OC(=O)Nc1ccc(CNC(=O)Nc2ccc(S(=O)(=O)N3CCCCC3)cc2)cn1 [tert-butylN-{5-[({[4-(piperidine-1-sulfonyl)phenyl]carbamoyl}amino)methyl]pyridin-2-yl}carbamate]	9780		3140
